Key:
Assay type in all cases: cell-based
Streptococcus pneumoniae [1] = assay: lysis after exposure to 10×MIC vancomycin (optical density of the culture)
Experimental: Prevalence of vancomycin tolerance in clinical isolates. To determine the prevalence of vancomycin tolerance in Streptococcus pneumoniae in a population of healthy children, 215 nasopharygeal isolates from Vanderbilt University Hospital were screened for lysis after exposure to 10×MIC (minimum inhibitory concentration) vancomycin (5 ug/ml).

Streptococcus pneumoniae [2] = assay: viability assay after exposure to vancomycin
Source text: To confirm tolerance, the 27 non-lytic strains were subjected to viability assays. […] This is within ±2 standard deviations (SD) of the killing rate for the tolerant Lyt4-4 strain.

Streptococcus pneumoniae [3] = assay: MIC of tolerant isolates; details: tolerant clinical isolates
Experimental: (§1) Characteristics of Tolerant Isolates. The MIC's of the tolerant isolates ranged from 0.1 ug/ml to 0.3 ug/ml vancomycin and all were resistant to penicillin as evidenced by an oxacillin disc sensitivity test. Tolerance was not correlated with serotype. Frequently, tolerant strains were isolated days to weeks after non-tolerant strains in the same child indicating tolerance could arise during carriage in the nasopharynx. Clonal relatedness between the non-tolerant and tolerant strains isolated sequentially from the same child was assessed by pulse-field gel electrophoresis (PFGE) patterns of SmaI digested genomic DNA. […] Thus, tolerant and non-tolerant strains could be paired for comparison. PFGE indicated a possible serotype switch in one child (Child C), while another child (Child E) was colonized by two separate, yet closely related, tolerant strains.

Streptococcus pneumoniae [4] = assay: reversal of tolerance by exogenous synthetic Pep27 added with vancomycin; details: tolerant clinical strains, vancomycin 10×MIC in the absence of peptide
Experimental: Pep27 Transport by Vex. In laboratory strains, tolerance has been created by loss of function mutations in the death signal Pep27 or its transporter Vex, the loci contiguous with vncS/R. Tolerance in these cases was attributed to lack of Pep27 or lack of Pep27 export into the supernatant. To assess Pep27 in the supernatant, immunoprecipitations were performed using Pep27 antibody. […] Therefore, extracellular transport of the peptide may be defective in tolerant strains leading to the loss of signal for death through VncS. If so, tolerance should be reversed through the addition of exogenous Pep27 to the culture. To test this, tolerant clinical strains were treated with vancomycin at 10×MIC as before but 0.5 mM synthetic Pep27 was added in conjunction with the antibiotic.

Streptococcus pneumoniae [5] = assay: lysis by 1% deoxycholate (activation of functional LytA); details: all tolerant isolates
Source text: Identification of the Mechanism Contributing to Tolerance. […] Furthermore, all tolerant isolates were lysed by 1% deoxycholate—a detergent that specifically activates functional LytA causing lysis of the bacteria. This eliminated mechanisms of tolerance in the clinical strains that arise from lack of enzyme or loss of amidase activity. Attention thus focused on the only reported mechanism where normal amidase is present: mutation of the vncR/S locus, encoding a two-component sensor regulator system. Western blot analysis confirmed the presence of VncS and VncR in the tolerant clinical isolates.

Streptococcus pneumoniae [6] = assay: oxacillin disc sensitivity test; details: tolerant clinical isolates
Experimental: as §1

Q: Which “optical density of the culture” value (Streptococcus pneumoniae [1]; 27 of 215 nasopharyngeal isolates that failed to lyse, after 4 hours, 10×MIC vancomycin (5 ug/ml)) does the source give for `CN[C@H](CC(C)C)C(=O)N[C@H]1C(=O)N[C@@H](CC(N)=O)C(=O)N[C@H]2C(=O)N[C@H]3C(=O)N[C@H](C(=O)N[C@H](C(=O)O)c4cc(O)cc(O)c4-c4cc3ccc4O)[C@H](O)c3ccc(c(Cl)c3)Oc3cc2cc(c3O[C@@H]2O[C@H](CO)[C@@H](O)[C@H](O)[C@H]2O[C@H]2C[C@](C)(N)[C@H](O)[C@H](C)O2)Oc2ccc(cc2Cl)[C@H]1O` [vancomycin] here?
A: above 0.15

Q: And the OD620nm (Streptococcus pneumoniae [1]; control R6 strain, after 2 hours @ 10×MIC of vancomycin)?
A: 0.02

Q: And the log kill (Streptococcus pneumoniae [2]; R6 strain, after 4 hours of exposure to vancomycin)?
A: 5 log

Q: What about the log killing (Streptococcus pneumoniae [2]; eight tolerant clinical isolates, after 4 hours of exposure to vancomycin) of the same compound?
A: < 3 log

Q: What about the “viability after antibiotic exposure” value (Streptococcus pneumoniae [2]; remaining 19 non-lytic isolates) of the same compound?
A: dead after antibiotic exposure

Q: What about the MIC (Streptococcus pneumoniae [3]) of the same compound?
A: 0.1 to 0.3 µg/mL

Q: And the viability diminished (Streptococcus pneumoniae [4])?
A: 2 logs

Q: Which “lysis of the bacteria” value (Streptococcus pneumoniae [5]) does the source give for deoxycholate here?
A: lysed

Q: For penicillin, which penicillin susceptibility (Streptococcus pneumoniae [6]) is on record?
A: resistant

— patent US6623931B2, “Diagnostic assay for antibiotic tolerance” (priority 2001, dated 2003)
